Literature values, collected in patent publication US20200246376A1, “HYDROGEN BASED COMPOSITIONS” (HYDROGEN4HEALTH PTY LTD, priority 2019, published 2020).

## [HH] [molecular hydrogen, hydrogen]
Hydrogen water prepared by electrolysis
  saturation of molecular hydrogen in water: around 1.6 ppm
Standard temperature and pressure (STP)
  typical saturation of hydrogen gas in water: 1.6 mg/L
